According to patent US7985774B2, “Use of 3,5-seco-4-nor-cholestane derivatives for obtaining a cytoprotective drug” (Trophos, priority 2006, dated 2011):

What was measured:
C57BL6 mice = assay: In vivo model of myocardium infarction (coronary occlusion-reperfusion)
Experimental: The purpose of this experiment is to study in vivo the cardioprotective properties of the compounds, 3,5-seco-4-nor-cholestan-5-one oxime-3-ol and 3,5-seco-4-nor-cholestan-5-one oxime-3-N,N-dimethylglycine ester, in a murine coronary occlusion-reperfusion model.
The compounds to be tested are administered intravenously in mice, 5 minutes before reperfusion of the myocardium ischemiated beforehand. As controls, carriers of the compounds beta-cyclodextrin (hereafter called βCD) and water, respectively, are administered under the same conditions as for the compounds.
In order to determine the effect of the tested compounds, the size of the infarction is measured after 24 hour reperfusion.
6-8 week old male C57BL6 mice are anaesthetized with sodium pentobarbital (50 mg/kg i.p.) and are ventilated after intubation with an O2/CO2 (95%/5%) mixture throughout the experiment. The surface electrocardiogram (ECG) is recorded and viewed on an oscilloscope all along surgery. Under strict asepsis conditions, the jugular vein is catheterized for intravenous administration of the compounds. A left lateral thoracotomy is performed and after pericardiotomy, a major branch of the left coronary artery is localized in the latero-posterior region of the left ventricle. A prolene no. 8 suture is positioned around this artery so as to form a mobile loop for making a temporary coronary occlusion.
All the mice were subject to a 30 minute temporary coronary occlusion. Ischemia of the myocardium region is confirmed by cyanosis of the myocardium surface and a deviation of the ST segment of the electrocardiogram.
Each of the compounds (treated group, n=10) or its solvent (control group, n=10) was administered as a bolus intravenously, 5 min before lifting the 30 minutes of coronary occlusion.
3,5-seco-4-nor-cholestan-5-one oxime-3-ol, dissolved beforehand to a final concentration of 0.46 mg/ml in a 30% βCD solution in phosphate buffer prepared by saturation followed by centrifugation, is administered at a dosage of 1 mg/kg.
3,5-seco-4-nor-cholestan-5-one oxime-3-N,N-dimethylglycine ester, dissolved beforehand to a final concentration of 1.56 mg/ml in sterile water by stirring and sonication, is administered at a dosage of 3.9 mg/kg.
The same volume of carrier is administered in the corresponding control groups.
Twenty four hours after the end of coronary occlusion, the mice are re-anaesthetized with sodium pentobarbital (50 mg/kg i.p.) and heparin is administered intravenously (Choay© heparin 1,000 IU/kg). A ligature of the coronary artery is achieved at the same location having been subject to the first occlusion 24 h previously. The mice are then euthanized with a lethal saturated dose of potassium chloride and their heart is rapidly excised and then mounted through the aorta artery on a retrograde perfusion system of the Langendorff type.
A 5% Evans blue solution is perfused retrogradely so that the healthy myocardium is colored in blue; the area made ischemic during the coronary occlusion, or <<area of risk AR>> remaining uncolored by default.
The left ventricle is then cut out into 5 slices with equal thicknesses (1 mm) by means of a slicer specially designed for hearts of mice (Les Isolants de Paris, Palaiseau), which are then weighed.
These slices are incubated in a 1% triphenyltetrazolium chloride solution (TTC, Sigma, Poole, UK) at pH 7.4 for 20 min at 37° C. and then set in 4% formol. TTC has the property of coloring the non-infarcted myocardium in red, and so showing the infarcted areas in white. Each heart slice is placed under a stereo microscope for taking a high definition digital photograph.
Quantification of infarction and the area of risk is carried out by planimetry (Scion Image, Scion, Frederick Md., USA) and referred to the weight of each slice.
The area of risk (non-blue area) is expressed as a percentage of the weight of the left ventricle. The infarction sizes are expressed as a percentage of the weight of the area of risk. […]

CD1 mice = assay: Acute hepatotoxicity: intoxication by Jo2 anti-Fas antibody and assaying ALATs; format: in vivo; conditions: blood 24 hrs after Jo2, control 2,860 ± 382
Source text: An acute model of hepatic damage may be induced by a single injection of the Jo2 anti-Fas antibody (Ogasawara et al., Nature, August 1993), producing severe hepatic damages and resembling viral, auto-immune or drug-induced hepatitis.
Alanine Aminotransferase (ALAT) also called Serum Glutamic Pyruvic Transaminase (SGPT) is an enzyme present in hepatocytes.
Male adult CD1 mice from the breeder “Elevage Janvier”, (Le Genest-Saint-Isle, France) were used. The animals were identified individually and had free access to water and food.
A stock solution of monoclonal hamster anti-mouse CD95 (Fas) antibody, called Jo2, from Pharmingen (BD Biosciences, ref. 554254 batch 32699) is prepared at a concentration of 1 mg/mL in water. The dilutions used are made in 0.9% sodium chloride in water.
The desired amount of 3,5-seco-4-nor-cholestan-5-one oxime-3-ol is weighed and milled into a fine powder, and then mixed with Cremophore EL (Sigma C5135) and absolute ethanol (Carlo Erba RPE 41571) (5% and 10% of the final volume, respectively). After complete dissolution, 0.9% sodium chloride in water is added extemporaneously (85% of the final volume).
Pretreatment with 3,5-seco-4-nor-cholestan-5-one oxime-3-ol is carried out with dosages of 10 and 30 mg/kg by intraperitoneal administration 1 hr before administering the Jo2 antibody. […]

[1] = 1 mg/kg i.v. bolus in βCD 5 min before reperfusion, 30 min occlusion, 24 h reperfusion, mean±SEM

CC(C)CCC[C@@H](C)[C@H]1CC[C@H]2[C@@H]3CC/C(=N\O)[C@](C)(CCCO)[C@H]3CC[C@]12C [3,5-seco-4-nor-cholestan-5-one oxime-3-ol] was tested, and the “Area of risk (percentage of the weight of the left ventricle)” value (C57BL6 mice; [1]) was 9 +/− 4%, the “Infarction size (percentage of the weight of the area of risk)” value (C57BL6 mice; [1]) was 21 +/− 7% and the Infarction size reduction (C57BL6 mice; 1 mg/kg i.v., versus carrier (βCD)) was 36.4%. For the same compound, the “ALAT activity Average +/− SEM” value (CD1 mice; 10 mg/kg i.p. 1 hr before Jo2 125 μg/kg i.p.) was 511 ± 140 U/L and the “ALAT activity Average +/− SEM” value (CD1 mice; 30 mg/kg i.p. 1 hr before Jo2 125 μg/kg i.p.) was 533 ± 150 U/L.
